Measurements reported in patent US12479847B2 (DANA-FARBER CANCER INSTITUTE, INC., priority 2019, dated 2025).
Like-named read-outs stand apart in the source and are kept apart here.

Legend:
Test in all cases: KINOMEscan (ScanMAX) kinase profiling
Assay type in all cases: binding
[1] = biological target: T1, panel of 468 kinases (Homo sapiens, UniProt O15264); conditions: p38-delta; 1 μM; read-out: % control
T1 construct: purchased KINOMEscan (ScanMAX) service
T1 sequence (O15264 1-365): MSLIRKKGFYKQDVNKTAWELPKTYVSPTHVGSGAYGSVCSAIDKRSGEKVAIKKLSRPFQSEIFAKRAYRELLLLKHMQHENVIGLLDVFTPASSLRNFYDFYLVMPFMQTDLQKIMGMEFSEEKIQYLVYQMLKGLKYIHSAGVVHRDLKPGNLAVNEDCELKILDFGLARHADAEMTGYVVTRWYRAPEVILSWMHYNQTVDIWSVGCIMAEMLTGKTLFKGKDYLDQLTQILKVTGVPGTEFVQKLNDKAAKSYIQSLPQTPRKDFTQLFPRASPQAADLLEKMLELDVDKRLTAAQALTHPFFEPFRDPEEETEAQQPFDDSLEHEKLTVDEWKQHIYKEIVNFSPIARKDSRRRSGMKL

[2] = biological target: T2, panel of 468 kinases (Homo sapiens, UniProt O75676); conditions: 1 μM, read-out: % control
T2 construct: purchased KINOMEscan (ScanMAX) service

[3] = biological target: T3, panel of 468 kinases (Homo sapiens, UniProt P04049); conditions: RAF1; 1 μM; read-out: % control
T3 construct: purchased KINOMEscan (ScanMAX) service

[4] = biological target: T4, panel of 468 kinases (Homo sapiens, UniProt P17612); conditions: PKAC-alpha; 1 μM; read-out: % control
T4 construct: purchased KINOMEscan (ScanMAX) service

[5] = biological target: T5, panel of 468 kinases (Homo sapiens, UniProt P19525); conditions: PRKR; 1 μM; read-out: % control
T5 construct: purchased KINOMEscan (ScanMAX) service

[6] = biological target: T6, panel of 468 kinases (Homo sapiens, UniProt P22455); conditions: FGFR4; 1 μM; read-out: % control
T6 construct: purchased KINOMEscan (ScanMAX) service

[7] = biological target: T7, panel of 468 kinases (Homo sapiens, UniProt P42681); conditions: TXK; 1 μM; read-out: % control
T7 construct: purchased KINOMEscan (ScanMAX) service
T7 sequence (P42681 1-527): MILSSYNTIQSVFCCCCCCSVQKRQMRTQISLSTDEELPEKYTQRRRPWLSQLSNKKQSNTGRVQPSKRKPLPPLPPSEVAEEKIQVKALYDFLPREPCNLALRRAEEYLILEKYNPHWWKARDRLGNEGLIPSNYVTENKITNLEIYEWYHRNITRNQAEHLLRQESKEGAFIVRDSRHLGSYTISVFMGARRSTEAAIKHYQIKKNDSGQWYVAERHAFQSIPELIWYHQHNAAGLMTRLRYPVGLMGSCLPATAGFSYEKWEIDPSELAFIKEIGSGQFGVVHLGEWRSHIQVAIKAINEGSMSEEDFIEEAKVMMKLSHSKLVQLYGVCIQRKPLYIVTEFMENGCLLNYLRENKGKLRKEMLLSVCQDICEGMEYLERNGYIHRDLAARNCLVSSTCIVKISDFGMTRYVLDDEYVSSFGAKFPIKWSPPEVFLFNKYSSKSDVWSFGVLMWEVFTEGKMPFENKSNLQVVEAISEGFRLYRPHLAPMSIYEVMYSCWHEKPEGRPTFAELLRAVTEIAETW

[8] = biological target: T8, panel of 468 kinases (Homo sapiens, UniProt P49759); conditions: CLK1; 1 μM; read-out: % control
T8 construct: purchased KINOMEscan (ScanMAX) service

[9] = biological target: T9, panel of 468 kinases (Homo sapiens, UniProt P49760); conditions: CLK2; 1 μM; read-out: % control
T9 construct: purchased KINOMEscan (ScanMAX) service

[10] = biological target: T10, panel of 468 kinases (Homo sapiens, UniProt Q15759); conditions: p38-beta; 1 μM; read-out: % control
T10 construct: purchased KINOMEscan (ScanMAX) service

[11] = biological target: T11, panel of 468 kinases (Homo sapiens, UniProt Q15831); conditions: LKB1; 1 μM; read-out: % control
T11 construct: purchased KINOMEscan (ScanMAX) service
T11 sequence (Q15831 1-433): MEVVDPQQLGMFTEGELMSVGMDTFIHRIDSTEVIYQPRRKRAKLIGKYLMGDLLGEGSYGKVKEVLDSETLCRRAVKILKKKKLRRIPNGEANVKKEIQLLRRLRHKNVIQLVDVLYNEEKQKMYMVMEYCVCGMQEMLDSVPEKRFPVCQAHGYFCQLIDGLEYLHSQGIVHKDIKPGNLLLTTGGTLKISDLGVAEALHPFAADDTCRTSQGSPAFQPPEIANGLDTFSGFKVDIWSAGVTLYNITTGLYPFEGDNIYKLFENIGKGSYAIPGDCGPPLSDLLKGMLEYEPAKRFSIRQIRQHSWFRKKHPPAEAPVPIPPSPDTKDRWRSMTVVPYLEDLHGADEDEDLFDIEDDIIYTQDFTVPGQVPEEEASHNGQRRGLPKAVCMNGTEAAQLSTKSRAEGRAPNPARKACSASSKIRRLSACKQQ

[12] = biological target: T12, panel of 468 kinases (Homo sapiens, UniProt Q16512); conditions: PKN1; 1 μM; read-out: % control
T12 construct: purchased KINOMEscan (ScanMAX) service

[13] = biological target: T13, panel of 468 kinases (Homo sapiens, UniProt Q9UKE5); conditions: TNIK; 1 μM; read-out: % control
T13 construct: purchased KINOMEscan (ScanMAX) service

[14] = biological target: T14, panel of 468 kinases (Homo sapiens, UniProt Q9Y2H1); conditions: NDR2; 1 μM; read-out: % control
T14 construct: purchased KINOMEscan (ScanMAX) service
T14 sequence (Q9Y2H1 whole entry): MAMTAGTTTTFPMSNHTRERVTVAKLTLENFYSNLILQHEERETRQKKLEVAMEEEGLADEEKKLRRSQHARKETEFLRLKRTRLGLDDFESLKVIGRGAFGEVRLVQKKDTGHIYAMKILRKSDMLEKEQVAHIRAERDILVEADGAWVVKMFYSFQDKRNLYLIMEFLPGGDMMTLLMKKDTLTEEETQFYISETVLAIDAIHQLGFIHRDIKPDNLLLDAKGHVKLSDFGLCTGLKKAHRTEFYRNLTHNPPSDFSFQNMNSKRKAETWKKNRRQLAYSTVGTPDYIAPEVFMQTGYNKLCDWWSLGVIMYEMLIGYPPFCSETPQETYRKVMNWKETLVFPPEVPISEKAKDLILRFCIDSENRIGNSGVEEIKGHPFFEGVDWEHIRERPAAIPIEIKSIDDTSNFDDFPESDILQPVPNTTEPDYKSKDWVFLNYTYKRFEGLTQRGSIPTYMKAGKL

T10 sequence (Q15759 whole entry): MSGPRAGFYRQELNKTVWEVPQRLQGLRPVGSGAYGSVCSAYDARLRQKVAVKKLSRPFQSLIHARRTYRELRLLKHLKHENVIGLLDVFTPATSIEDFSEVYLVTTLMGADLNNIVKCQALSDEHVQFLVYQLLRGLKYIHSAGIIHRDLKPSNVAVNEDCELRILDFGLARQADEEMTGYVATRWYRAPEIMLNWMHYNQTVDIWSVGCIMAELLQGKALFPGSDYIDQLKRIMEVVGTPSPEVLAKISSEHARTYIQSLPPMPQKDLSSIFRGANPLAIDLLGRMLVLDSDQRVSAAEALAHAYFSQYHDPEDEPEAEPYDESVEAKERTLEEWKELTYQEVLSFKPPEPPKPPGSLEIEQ
T8 sequence (P49759 whole entry): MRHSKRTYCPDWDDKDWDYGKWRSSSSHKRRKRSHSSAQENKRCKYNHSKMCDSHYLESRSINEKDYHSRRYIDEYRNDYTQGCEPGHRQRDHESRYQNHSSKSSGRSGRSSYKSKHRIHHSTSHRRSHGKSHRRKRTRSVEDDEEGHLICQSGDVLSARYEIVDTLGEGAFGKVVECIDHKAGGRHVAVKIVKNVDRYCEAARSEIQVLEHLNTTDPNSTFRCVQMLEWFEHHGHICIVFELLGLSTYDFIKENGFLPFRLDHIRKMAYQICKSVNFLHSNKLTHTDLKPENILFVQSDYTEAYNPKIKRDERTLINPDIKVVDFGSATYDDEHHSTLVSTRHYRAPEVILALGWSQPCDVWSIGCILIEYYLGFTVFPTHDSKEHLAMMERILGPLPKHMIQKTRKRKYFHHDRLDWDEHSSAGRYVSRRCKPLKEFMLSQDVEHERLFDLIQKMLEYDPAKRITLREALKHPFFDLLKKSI
T2 sequence (O75676 whole entry): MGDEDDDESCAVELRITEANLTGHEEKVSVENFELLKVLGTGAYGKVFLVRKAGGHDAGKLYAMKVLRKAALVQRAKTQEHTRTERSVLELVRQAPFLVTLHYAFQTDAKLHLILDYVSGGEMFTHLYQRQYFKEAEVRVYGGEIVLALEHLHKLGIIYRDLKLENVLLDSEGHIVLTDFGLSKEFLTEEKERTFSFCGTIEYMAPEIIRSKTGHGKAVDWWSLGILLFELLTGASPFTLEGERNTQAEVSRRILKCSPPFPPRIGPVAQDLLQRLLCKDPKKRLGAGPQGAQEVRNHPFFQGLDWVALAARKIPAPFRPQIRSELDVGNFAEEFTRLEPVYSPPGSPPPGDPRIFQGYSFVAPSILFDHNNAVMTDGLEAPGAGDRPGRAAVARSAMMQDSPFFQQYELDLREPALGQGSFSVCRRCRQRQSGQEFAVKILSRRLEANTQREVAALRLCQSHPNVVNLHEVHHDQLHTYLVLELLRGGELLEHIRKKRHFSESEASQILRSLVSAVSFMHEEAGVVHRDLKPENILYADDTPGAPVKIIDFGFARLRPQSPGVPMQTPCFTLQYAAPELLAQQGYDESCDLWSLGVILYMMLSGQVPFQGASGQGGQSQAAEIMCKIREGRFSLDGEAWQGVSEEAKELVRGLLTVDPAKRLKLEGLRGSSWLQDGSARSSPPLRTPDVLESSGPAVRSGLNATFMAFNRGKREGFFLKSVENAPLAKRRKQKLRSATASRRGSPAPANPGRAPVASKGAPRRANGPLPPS
T6 sequence (P22455 22-802): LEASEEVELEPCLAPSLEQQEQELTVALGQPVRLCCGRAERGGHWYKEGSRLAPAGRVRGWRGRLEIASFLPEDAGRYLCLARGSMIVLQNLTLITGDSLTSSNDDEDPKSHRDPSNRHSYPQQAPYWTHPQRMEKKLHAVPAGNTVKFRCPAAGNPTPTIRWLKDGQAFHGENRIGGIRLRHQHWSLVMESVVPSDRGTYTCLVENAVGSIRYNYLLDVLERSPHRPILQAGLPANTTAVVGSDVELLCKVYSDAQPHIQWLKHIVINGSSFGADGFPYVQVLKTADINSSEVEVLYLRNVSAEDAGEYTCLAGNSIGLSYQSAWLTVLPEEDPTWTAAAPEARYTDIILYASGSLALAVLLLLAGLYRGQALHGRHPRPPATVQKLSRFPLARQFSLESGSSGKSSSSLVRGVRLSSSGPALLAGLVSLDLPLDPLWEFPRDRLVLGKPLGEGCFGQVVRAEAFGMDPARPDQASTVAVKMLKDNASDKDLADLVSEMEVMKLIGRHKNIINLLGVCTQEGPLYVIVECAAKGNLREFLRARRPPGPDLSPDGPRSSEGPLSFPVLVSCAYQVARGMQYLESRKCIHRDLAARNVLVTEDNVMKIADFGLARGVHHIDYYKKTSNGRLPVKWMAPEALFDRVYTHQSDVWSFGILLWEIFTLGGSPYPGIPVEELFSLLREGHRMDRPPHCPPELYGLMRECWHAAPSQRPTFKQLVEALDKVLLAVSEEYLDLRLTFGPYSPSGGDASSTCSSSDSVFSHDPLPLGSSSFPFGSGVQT
T13 sequence (Q9UKE5 whole entry): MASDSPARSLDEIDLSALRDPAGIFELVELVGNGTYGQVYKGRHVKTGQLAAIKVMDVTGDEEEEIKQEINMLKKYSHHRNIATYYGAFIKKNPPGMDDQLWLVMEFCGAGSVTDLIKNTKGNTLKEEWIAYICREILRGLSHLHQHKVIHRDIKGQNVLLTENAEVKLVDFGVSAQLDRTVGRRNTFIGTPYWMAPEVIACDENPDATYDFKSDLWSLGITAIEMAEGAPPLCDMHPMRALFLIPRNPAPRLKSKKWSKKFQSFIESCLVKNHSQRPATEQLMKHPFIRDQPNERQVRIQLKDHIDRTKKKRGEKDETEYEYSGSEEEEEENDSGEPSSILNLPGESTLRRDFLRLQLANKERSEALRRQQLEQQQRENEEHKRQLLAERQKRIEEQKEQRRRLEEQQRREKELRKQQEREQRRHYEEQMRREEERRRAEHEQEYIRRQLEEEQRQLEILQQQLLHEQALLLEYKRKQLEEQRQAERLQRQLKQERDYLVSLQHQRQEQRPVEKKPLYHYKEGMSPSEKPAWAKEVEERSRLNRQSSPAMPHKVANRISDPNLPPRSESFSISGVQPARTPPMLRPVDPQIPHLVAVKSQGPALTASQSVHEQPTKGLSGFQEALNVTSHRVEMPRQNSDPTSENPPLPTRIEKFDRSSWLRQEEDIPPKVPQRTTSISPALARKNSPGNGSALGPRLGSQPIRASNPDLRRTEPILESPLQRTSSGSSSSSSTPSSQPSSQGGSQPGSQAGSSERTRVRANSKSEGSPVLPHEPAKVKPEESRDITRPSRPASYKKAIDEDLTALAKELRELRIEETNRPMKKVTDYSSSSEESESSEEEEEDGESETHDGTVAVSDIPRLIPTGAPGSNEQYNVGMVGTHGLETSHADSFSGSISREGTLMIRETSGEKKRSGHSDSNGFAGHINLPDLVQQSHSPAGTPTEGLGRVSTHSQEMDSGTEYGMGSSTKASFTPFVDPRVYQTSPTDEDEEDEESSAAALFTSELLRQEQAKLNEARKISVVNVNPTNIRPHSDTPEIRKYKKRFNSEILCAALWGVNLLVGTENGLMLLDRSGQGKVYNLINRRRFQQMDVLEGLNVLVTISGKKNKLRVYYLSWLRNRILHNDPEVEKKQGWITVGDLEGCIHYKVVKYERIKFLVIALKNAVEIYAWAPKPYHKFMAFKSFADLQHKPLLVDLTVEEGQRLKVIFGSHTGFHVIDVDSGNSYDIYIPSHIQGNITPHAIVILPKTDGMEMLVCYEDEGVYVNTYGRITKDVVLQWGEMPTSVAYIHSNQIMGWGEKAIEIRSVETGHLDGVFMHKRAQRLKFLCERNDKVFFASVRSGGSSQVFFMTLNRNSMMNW
T5 sequence (P19525 whole entry): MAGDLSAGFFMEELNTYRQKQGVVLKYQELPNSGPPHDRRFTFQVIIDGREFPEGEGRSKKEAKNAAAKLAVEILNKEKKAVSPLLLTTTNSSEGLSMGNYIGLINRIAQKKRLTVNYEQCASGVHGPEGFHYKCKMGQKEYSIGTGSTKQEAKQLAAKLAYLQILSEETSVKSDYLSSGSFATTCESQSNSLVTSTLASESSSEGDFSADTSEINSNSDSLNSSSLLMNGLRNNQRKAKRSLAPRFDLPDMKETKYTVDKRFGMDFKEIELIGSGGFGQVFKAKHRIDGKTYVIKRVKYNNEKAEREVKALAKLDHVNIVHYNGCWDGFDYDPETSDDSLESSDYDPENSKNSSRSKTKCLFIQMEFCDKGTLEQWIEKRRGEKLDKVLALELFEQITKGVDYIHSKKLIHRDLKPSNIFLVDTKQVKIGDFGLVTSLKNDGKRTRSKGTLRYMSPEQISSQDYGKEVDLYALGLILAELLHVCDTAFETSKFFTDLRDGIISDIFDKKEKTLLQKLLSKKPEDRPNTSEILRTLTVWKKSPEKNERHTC

`CNc1nc(Nc2ccc(S(=O)(=O)N3CCC(N4CCOCC4)CC3)cc2OC)nc2[nH]cc(Cl)c12` [Compound 12, 5-chloro-N2-(2-methoxy-4-((4-morpholinopiperidin-1-yl)sulfonyl)phenyl)-N4-methyl-7H-pyrrolo[2,3-d]pyrimidine-2,4-diamine] gave a remaining binding at 1 µM [1] of 100%, a remaining binding at 1 µM ([2]; RPS6KA4(Kin.Dom.1-N-terminal)) of 100% and a remaining binding at 1 µM ([2]; RPS6KA4(Kin.Dom.2-C-terminal)) of 13%. It also gave a remaining binding at 1 µM [3] of 100%, a remaining binding at 1 µM [4] of 100% and a remaining binding at 1 µM [5] of 100%. For the same compound, the remaining binding at 1 µM [6] was 90%, the remaining binding at 1 µM [7] was 100% and the remaining binding at 1 µM [8] was 6.1%. For the same compound, the remaining binding at 1 µM [9] was 55%, the remaining binding at 1 µM [10] was 100% and the remaining binding at 1 µM [11] was 100%. It also gave a remaining binding at 1 µM [12] of 100%, a remaining binding at 1 µM [13] of 92% and a remaining binding at 1 µM [14] of 100%.
Work on `CNc1nc(Nc2ccc(P3(=O)CCN(C4CCOCC4)CC3)cc2OC)nc2[nH]cc(Cl)c12` [Compound 77, 4-(4-((5-chloro-4-(methylamino)-7H-pyrrolo[2,3-d]pyrimidin-2-yl)amino)-3-methoxyphenyl)-1-(tetrahydro-2H-pyran-4-yl)-1,4-azaphosphinane 4-oxide] yielded a remaining binding at 1 µM [1] of 100%, a remaining binding at 1 µM ([2]; RPS6KA4(Kin.Dom.1-N-terminal)) of 100% and a remaining binding at 1 µM ([2]; RPS6KA4(Kin.Dom.2-C-terminal)) of 0.7%. It also gave a remaining binding at 1 µM [3] of 100%, a remaining binding at 1 µM [4] of 100% and a remaining binding at 1 µM [5] of 100%. For the same compound, the remaining binding at 1 µM [6] was 98%, the remaining binding at 1 µM [7] was 98% and the remaining binding at 1 µM [8] was 7.1%. The remaining binding at 1 µM [9] was 28%, the remaining binding at 1 µM [10] was 100% and the remaining binding at 1 µM [11] was 100%. It also gave a remaining binding at 1 µM [12] of 99%, a remaining binding at 1 µM [13] of 72% and a remaining binding at 1 µM [14] of 100%.
Work on `CNc1nc(Nc2ccc(C(=O)N3CCC(N4CCOCC4)CC3)c3c2OCO3)nc2[nH]cc(Cl)c12` [Compound 75, (7-((5-chloro-4-(methylamino)-7H-pyrrolo[2,3-d]pyrimidin-2-yl)amino)benzo[d][1,3]dioxol-4-yl)(4-morpholinopiperidin-1-yl)methanone] yielded a remaining binding at 1 µM [1] of 100%, a remaining binding at 1 µM ([2]; RPS6KA4(Kin.Dom.1-N-terminal)) of 89% and a remaining binding at 1 µM ([2]; RPS6KA4(Kin.Dom.2-C-terminal)) of 3.9%. The remaining binding at 1 µM [3] was 100%, the remaining binding at 1 µM [4] was 100% and the remaining binding at 1 µM [5] was 100%. It also gave a remaining binding at 1 µM [6] of 100%, a remaining binding at 1 µM [7] of 87% and a remaining binding at 1 µM [8] of 3.4%. For the same compound, the remaining binding at 1 µM [9] was 21%, the remaining binding at 1 µM [10] was 100% and the remaining binding at 1 µM [11] was 100%. The remaining binding at 1 µM [12] was 98%, the remaining binding at 1 µM [13] was 39% and the remaining binding at 1 µM [14] was 100%.
